Measured values reported in ChEMBL document CHEMBL4673248, “Discovery and Characterization of BAY 1214784, an Orally Available Spiroindoline Derivative Acting as a Potent and Selective Antagonist of the Human Gonadotropin-Releasing Hormone Receptor as Proven in a First-In-Human Study in Postmenopausal Women” (J Med Chem, 2020).

How the values were obtained:
[1] = Maximum oral bioavailability in Han Wistar rat hepatocytes at 1 uM measured after 2 to 90 mins by LC-MS/MS analysis; type: ADME, Hepatocyte; conditions: time 2-90 min, read-out: Fmax
Cytochrome P450 2D6 = Cytochrome P450 2D6 (Homo sapiens, UniProt P10635); assay: Inhibition of CYP2D6 in human liver microsomes using dextromethorphan as substrate by LC-MS/MS analysis; type: ADME
Chain of Cytochrome P450 2D6 (P10635 whole entry): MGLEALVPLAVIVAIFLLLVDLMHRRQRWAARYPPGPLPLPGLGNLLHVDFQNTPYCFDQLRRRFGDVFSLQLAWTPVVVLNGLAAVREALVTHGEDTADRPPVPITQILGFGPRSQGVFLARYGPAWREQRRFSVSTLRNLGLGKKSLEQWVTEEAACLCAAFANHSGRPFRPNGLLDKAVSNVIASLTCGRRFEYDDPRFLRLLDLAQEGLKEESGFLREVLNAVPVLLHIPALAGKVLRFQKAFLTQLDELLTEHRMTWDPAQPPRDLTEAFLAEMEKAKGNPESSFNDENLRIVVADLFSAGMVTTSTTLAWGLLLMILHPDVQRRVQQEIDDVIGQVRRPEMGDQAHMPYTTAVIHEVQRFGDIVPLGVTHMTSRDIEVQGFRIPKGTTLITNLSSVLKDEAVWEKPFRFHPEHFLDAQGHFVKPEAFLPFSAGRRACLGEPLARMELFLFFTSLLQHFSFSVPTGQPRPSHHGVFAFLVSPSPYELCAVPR

Fh at 1 µM [1]: 82%
IC50 (Cytochrome P450 2D6): > 10 µM
SMILES: O=C(NCc1ncc(C(F)(F)F)cc1Cl)c1ccc2c(c1)C1(CCS(=O)(=O)CC1)[C@H](C1CC1)N2S(=O)(=O)c1ccc(F)cc1 [BAY-784]
